Experimental data reported in ChEMBL document CHEMBL3885881, “DrugMatrix”.

Species: Rattus norvegicus
Assay: DrugMatrix - Regimen: Daily Repeat
Type: toxicity, organism-based, Sprague-Dawley
Parameters: regimen Daily Repeat, gender Male, age 6-8 weeks
Details: in vivo, 0 mg/kg, dose level Control, vehicle 100 % SALINE; for ABSOLUTE BASOPHIL / ABSOLUTE EOSINOPHIL / ABSOLUTE LYMPHOCYTE / ABSOLUTE MONOCYTE / ABSOLUTE SEGMENTED NEUTROPHIL / BASOPHIL / EOSINOPHIL / ERYTHROCYTE COUNT / HEMATOCRIT / HEMOGLOBIN / LEUKOCYTE COUNT / LYMPHOCYTE / MEAN CORPUSCULAR HEMOGLOBIN / MEAN CORPUSCULAR HEMOGLOBIN CONCENTRATION / MEAN CORPUSCULAR VOLUME / MONOCYTE / NEUTROPHIL / NUCLEATED RED BLOOD CELLS / PLATELET COUNT: tissue Blood; for ALANINE AMINOTRANSFERASE / ALBUMIN / ALKALINE PHOSPHATASE / ASPARTATE AMINOTRANSFERASE / BLOOD UREA NITROGEN / CARBON DIOXIDE / CHLORIDE / CHOLESTEROL / CREATINE PHOSPHOKINASE / CREATININE / GLUCOSE / LIPASE / PHOSPHORUS / POTASSIUM / SODIUM / TOTAL BILIRUBIN / TOTAL PROTEIN / URIC ACID: tissue Plasma
[1] = po, 72 h, route oral GAVAGE, time 3 day
[2] = po, 120 h, route oral GAVAGE, time 5 day

COc1cccc2c1C(=O)c1c(O)c3c(c(O)c1C2=O)C[C@@](O)(C(C)=O)C[C@@H]3O[C@H]1C[C@H](N)[C@H](O)[C@H](C)O1 [DAUNORUBICIN]
ABSOLUTE BASOPHIL (iv, 72 h, time 3 day): 0 CELLS/uL
ABSOLUTE EOSINOPHIL (iv, 72 h, time 3 day): 21.67 CELLS/uL
ABSOLUTE LYMPHOCYTE (iv, 72 h, time 3 day): 10193.67 CELLS/uL
ABSOLUTE MONOCYTE (iv, 72 h, time 3 day): 165.83 CELLS/uL
ABSOLUTE SEGMENTED NEUTROPHIL (iv, 72 h, time 3 day): 702.17 CELLS/uL
BASOPHIL (iv, 72 h, time 3 day): 0%
EOSINOPHIL (iv, 72 h, time 3 day): 0.17%
ERYTHROCYTE COUNT (iv, 72 h, time 3 day): 5.39 x10E6/uL
HEMATOCRIT (iv, 72 h, time 3 day): 34.62%
HEMOGLOBIN (iv, 72 h, time 3 day): 13.8 G/DL
LEUKOCYTE COUNT (iv, 72 h, time 3 day): 11.08 x10E3/uL
LYMPHOCYTE (iv, 72 h, time 3 day): 91.83%
MEAN CORPUSCULAR HEMOGLOBIN (iv, 72 h, time 3 day): 25.68 pg
MEAN CORPUSCULAR HEMOGLOBIN CONCENTRATION (iv, 72 h, time 3 day): 39.9 G/DL
MEAN CORPUSCULAR VOLUME (iv, 72 h, time 3 day): 64.37 fL
MONOCYTE (iv, 72 h, time 3 day): 1.5%
NEUTROPHIL (iv, 72 h, time 3 day): 6.5%
NUCLEATED RED BLOOD CELLS (iv, 72 h, time 3 day): 0 /100WBC
PLATELET COUNT (iv, 72 h, time 3 day): 1202.83 x10E3/uL
ALANINE AMINOTRANSFERASE (iv, 72 h, time 3 day): 55.5 u/L
ALBUMIN (iv, 72 h, time 3 day): 4.22 G/DL
ALKALINE PHOSPHATASE (iv, 72 h, time 3 day): 406.83 u/L
ASPARTATE AMINOTRANSFERASE (iv, 72 h, time 3 day): 101.5 u/L
BLOOD UREA NITROGEN (iv, 72 h, time 3 day): 13.5 mg/dL
CARBON DIOXIDE (iv, 72 h, time 3 day): 30.33 mmol/L
CHLORIDE (iv, 72 h, time 3 day): 102.17 MEQ/L
CHOLESTEROL (iv, 72 h, time 3 day): 63.67 mg/dL
CREATINE PHOSPHOKINASE (iv, 72 h, time 3 day): 732.67 u/L
CREATININE (iv, 72 h, time 3 day): 0.2 mg/dL
GLUCOSE (iv, 72 h, time 3 day): 157 mg/dL
LIPASE (iv, 72 h, time 3 day): 10.83 u/L
PHOSPHORUS (iv, 72 h, time 3 day): 12.68 mg/dL
POTASSIUM (iv, 72 h, time 3 day): 5.67 MEQ/L
SODIUM (iv, 72 h, time 3 day): 144 MEQ/L
TOTAL BILIRUBIN (iv, 72 h, time 3 day): 0.15 mg/dL
TOTAL PROTEIN (iv, 72 h, time 3 day): 6.02 G/DL
URIC ACID (iv, 72 h, time 3 day): 1.55 mg/dL
ABSOLUTE BASOPHIL (iv, 120 h, time 5 day): 0 CELLS/uL
ABSOLUTE EOSINOPHIL (iv, 120 h, time 5 day): 17 CELLS/uL
ABSOLUTE LYMPHOCYTE (iv, 120 h, time 5 day): 11849.17 CELLS/uL
ABSOLUTE MONOCYTE (iv, 120 h, time 5 day): 69.83 CELLS/uL
ABSOLUTE SEGMENTED NEUTROPHIL (iv, 120 h, time 5 day): 730.67 CELLS/uL
BASOPHIL (iv, 120 h, time 5 day): 0%
EOSINOPHIL (iv, 120 h, time 5 day): 0.17%
ERYTHROCYTE COUNT (iv, 120 h, time 5 day): 5.93 x10E6/uL
HEMATOCRIT (iv, 120 h, time 5 day): 37.42%
HEMOGLOBIN (iv, 120 h, time 5 day): 14.4 G/DL
LEUKOCYTE COUNT (iv, 120 h, time 5 day): 12.67 x10E3/uL
LYMPHOCYTE (iv, 120 h, time 5 day): 93.17%
MEAN CORPUSCULAR HEMOGLOBIN (iv, 120 h, time 5 day): 24.32 pg
MEAN CORPUSCULAR HEMOGLOBIN CONCENTRATION (iv, 120 h, time 5 day): 38.5 G/DL
MEAN CORPUSCULAR VOLUME (iv, 120 h, time 5 day): 63.08 fL
MONOCYTE (iv, 120 h, time 5 day): 0.5%
NEUTROPHIL (iv, 120 h, time 5 day): 6.17%
NUCLEATED RED BLOOD CELLS (iv, 120 h, time 5 day): 0 /100WBC
PLATELET COUNT (iv, 120 h, time 5 day): 1170.5 x10E3/uL
ALANINE AMINOTRANSFERASE (iv, 120 h, time 5 day): 51 u/L
ALBUMIN (iv, 120 h, time 5 day): 4.12 G/DL
ALKALINE PHOSPHATASE (iv, 120 h, time 5 day): 392.67 u/L
ASPARTATE AMINOTRANSFERASE (iv, 120 h, time 5 day): 81.67 u/L
BLOOD UREA NITROGEN (iv, 120 h, time 5 day): 16.17 mg/dL
CARBON DIOXIDE (iv, 120 h, time 5 day): 30.67 mmol/L
CHLORIDE (iv, 120 h, time 5 day): 100.5 MEQ/L
CHOLESTEROL (iv, 120 h, time 5 day): 64.83 mg/dL
CREATINE PHOSPHOKINASE (iv, 120 h, time 5 day): 242.67 u/L
CREATININE (iv, 120 h, time 5 day): 0.2 mg/dL
GLUCOSE (iv, 120 h, time 5 day): 186.83 mg/dL
LIPASE (iv, 120 h, time 5 day): 10.83 u/L
PHOSPHORUS (iv, 120 h, time 5 day): 11.67 mg/dL
POTASSIUM (iv, 120 h, time 5 day): 5.51 MEQ/L
SODIUM (iv, 120 h, time 5 day): 142.55 MEQ/L
TOTAL BILIRUBIN (iv, 120 h, time 5 day): 0.22 mg/dL
TOTAL PROTEIN (iv, 120 h, time 5 day): 6.08 G/DL
URIC ACID (iv, 120 h, time 5 day): 1.85 mg/dL
ABSOLUTE BASOPHIL [1]: 140 cells/µL
ABSOLUTE EOSINOPHIL [1]: 43.3 cells/µL
ABSOLUTE LYMPHOCYTE [1]: 7570 cells/µL
ABSOLUTE MONOCYTE [1]: 160 cells/µL
BASOPHIL [1]: 1.47%
EOSINOPHIL [1]: 0.47%
ERYTHROCYTE COUNT [1]: 6.68 x10E6/uL
HEMATOCRIT [1]: 44.33%
HEMOGLOBIN [1]: 14.43 G/DL
LEUKOCYTE COUNT [1]: 9.33 x10E3/uL
LYMPHOCYTE [1]: 81.23%
MEAN CORPUSCULAR HEMOGLOBIN [1]: 21.67 pg
MEAN CORPUSCULAR HEMOGLOBIN CONCENTRATION [1]: 32.6 G/DL
MEAN CORPUSCULAR VOLUME [1]: 66.43 fL
MONOCYTE [1]: 1.73%
NEUTROPHIL [1]: 14.7%
PLATELET COUNT [1]: 1341.67 x10E3/uL
ALANINE AMINOTRANSFERASE [1]: 31 u/L
ALBUMIN [1]: 4.03 G/DL
ALKALINE PHOSPHATASE [1]: 447 u/L
ASPARTATE AMINOTRANSFERASE [1]: 61.33 u/L
BLOOD UREA NITROGEN [1]: 15.67 mg/dL
CARBON DIOXIDE [1]: 43 mmol/L
CHLORIDE [1]: 103.33 MEQ/L
CHOLESTEROL [1]: 83.67 mg/dL
CREATINE PHOSPHOKINASE [1]: 174.33 u/L
CREATININE [1]: 0.4 mg/dL
GLUCOSE [1]: 173 mg/dL
LIPASE [1]: 17.33 u/L
PHOSPHORUS [1]: 10.27 mg/dL
POTASSIUM [1]: 6.47 MEQ/L
SODIUM [1]: 143.67 MEQ/L
TOTAL BILIRUBIN [1]: 0.37 mg/dL
TOTAL PROTEIN [1]: 6.63 G/DL
URIC ACID [1]: 1.03 mg/dL
ABSOLUTE BASOPHIL [2]: 53.3 cells/µL
ABSOLUTE EOSINOPHIL [2]: 210 cells/µL
ABSOLUTE LYMPHOCYTE [2]: 8220 cells/µL
ABSOLUTE MONOCYTE [2]: 200 cells/µL
BASOPHIL [2]: 0.53%
EOSINOPHIL [2]: 2.1%
ERYTHROCYTE COUNT [2]: 7 x10E6/uL
HEMATOCRIT [2]: 44%
HEMOGLOBIN [2]: 14.53 G/DL
LEUKOCYTE COUNT [2]: 10.44 x10E3/uL
LYMPHOCYTE [2]: 78.07%
MEAN CORPUSCULAR HEMOGLOBIN [2]: 20.77 pg
MEAN CORPUSCULAR HEMOGLOBIN CONCENTRATION [2]: 33 G/DL
MEAN CORPUSCULAR VOLUME [2]: 62.87 fL
MONOCYTE [2]: 1.87%
NEUTROPHIL [2]: 16.8%
PLATELET COUNT [2]: 1104.33 x10E3/uL
ALANINE AMINOTRANSFERASE [2]: 31.67 u/L
ALBUMIN [2]: 3.93 G/DL
ALKALINE PHOSPHATASE [2]: 394.67 u/L
ASPARTATE AMINOTRANSFERASE [2]: 65.67 u/L
BLOOD UREA NITROGEN [2]: 15.67 mg/dL
CARBON DIOXIDE [2]: 40.67 mmol/L
CHLORIDE [2]: 104.33 MEQ/L
CHOLESTEROL [2]: 66.33 mg/dL
CREATINE PHOSPHOKINASE [2]: 346.67 u/L
CREATININE [2]: 0.33 mg/dL
GLUCOSE [2]: 176.67 mg/dL
LIPASE [2]: 14.33 u/L
PHOSPHORUS [2]: 11.17 mg/dL
POTASSIUM [2]: 6.53 MEQ/L
SODIUM [2]: 146 MEQ/L
